Target: T1, full-length recombinant human NEK7 (Homo sapiens, UniProt Q8TDX7)
T1 construct: full-length recombinant human NEK7; GST (N); purchased SignalChem N09-10G; host or cells: Sf9 insect cells (baculovirus)
Assay: NEK7 enzymatic assay ([33P]-ATP, casein substrate)
Format: biochemical
Details: Table 2e; recombinant human NEK7, casein substrate
Method in brief: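 Serially diluted compounds (10 μM down to 0.5 nM, 3-fold) were preincubated 20 min at room temperature with N-terminal GST-NEK7 from Sf9 cells and casein in pH 7.5 Hepes/MgCl2/EGTA/Brij35/DTT buffer containing 1% DMSO. [33P]-ATP then started a 2 h room-temperature reaction, stopped by spotting onto P81 paper. IC50 came from percent activity remaining versus vehicle.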

T1 sequence (Q8TDX7 whole entry): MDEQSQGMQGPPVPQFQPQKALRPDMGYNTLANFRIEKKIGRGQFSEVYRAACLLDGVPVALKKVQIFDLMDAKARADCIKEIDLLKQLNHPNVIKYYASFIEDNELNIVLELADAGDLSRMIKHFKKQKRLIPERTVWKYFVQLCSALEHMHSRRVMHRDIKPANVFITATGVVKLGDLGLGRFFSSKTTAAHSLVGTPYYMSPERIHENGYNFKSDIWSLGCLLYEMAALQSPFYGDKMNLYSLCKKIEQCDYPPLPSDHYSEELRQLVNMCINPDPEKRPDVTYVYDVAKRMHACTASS

SMILES	IC50 [µM]
O=C(Nc1ccc(CN2CCOCC2)c(F)c1)Nc1ccc(Oc2ccnc3[nH]cc(Cl)c23)cc1F [Ie-2, 1-(4-((3-chloro-1H-pyrrolo[2,3-b]pyridin-4-yl)oxy)-2-fluorophenyl)-3-(3-fluoro-4-(morpholinomethyl)phenyl)urea]	> 1.5
Cc1cn(-c2cc(NC(=O)Nc3ccc(Oc4ccnc5[nH]cc(Cl)c45)cc3F)cc(C(F)(F)F)c2)cn1 [Ie-3, 1-(4-((3-Chloro-1H-pyrrolo[2,3-b]pyridin-4-yl)oxy)-2-fluorophenyl)-3-(3-(4-methyl-1H-1-imidazol-1-yl)-5-(TRIFLUOROMETHYL)phenyl)urea]	0.501 to 1.5
O=C(Nc1ccc(CN2CCOCC2)c(C(F)(F)F)c1)Nc1ccc(Oc2ccnc3[nH]cc(Cl)c23)cc1F [Ie-4, 1-(4-((3-Chloro-1H-pyrrolo[2,3-b]pyridin-4-yl)oxy)-2-fluorophenyl)-3-(4-(morpholinomethyl)-3-(trifluoromethyl)phenyl)UR EA]	> 1.5
CN1CCN(Cc2ccc(NC(=O)Nc3ccc(Oc4ccnc5[nH]cc(Cl)c45)cc3F)cc2F)CC1 [Ie-5, 1-(4-((3-chloro-1H-pyrrolo[2,3-b]pyridin-4-yl)oxy)-2-fluorophenyl)-3-(3-fluoro-4-((4-methylpiperazin-1-yl)methyl)phenyl)urea]	> 1.5
CN1CCN(c2cc(NC(=O)Nc3ccc(Oc4ccnc5[nH]cc(Cl)c45)cc3F)cc(C(F)(F)F)c2)CC1 [Ie-6, 1-(4-((3-chloro-1H-pyrrolo[2,3-b]pyridin-4-yl)oxy)-2-fluorophenyl)-3-(3-(4-methylpiperazin-1-yl)-5-(trifluoromethyl)phenyl)urea]	> 1.5
CN(C)Cc1ccc(NC(=O)Nc2ccc(Oc3ccnc4[nH]cc(Cl)c34)cc2F)cc1C(F)(F)F [Ie-7, 1-(4-((3-chloro-1H-pyrrolo[2,3-b]pyridin-4-yl)oxy)-2-fluorophenyl)-3-(4-((dimethylamino)methyl)-3-(trifluoromethyl)phenyl)urea]	> 1.5
CN(C)C1CN(Cc2ccc(NC(=O)Nc3ccc(Oc4ccnc5[nH]cc(Cl)c45)cc3F)cc2C(F)(F)F)C1 [Ie-8, 1-(4-((3-chloro-1H-pyrrolo[2,3-b]pyridin-4-yl)oxy)-2-fluorophenyl)-3-(4-((3-(dimethylamino)azetidin-1-yl)methyl)-3-(trifluoromethyl)phenyl)urea]	> 1.5
CC(C)N1CCN(Cc2ccc(NC(=O)Nc3ccc(Oc4ccnc5[nH]cc(Cl)c45)cc3F)cc2C(F)(F)F)CC1 [Ie-10, 1-(4-((3-chloro-1H-pyrrolo[2,3-b]pyridin-4-yl)oxy)-2-fluorophenyl)-3-(4-((4-isopropylpiperazin-1-yl)methyl)-3-(trifluoromethyl)phenyl)urea]	0.301 to 0.5
O=C(Nc1ccc(CN2CCN(C3CC3)CC2)c(C(F)(F)F)c1)Nc1ccc(Oc2ccnc3[nH]cc(Cl)c23)cc1F [Ie-11, 1-(4-((3-chloro-1H-pyrrolo[2,3-b]pyridin-4-yl)oxy)-2-fluorophenyl)-3-(4-((4-cyclopropylpiperazin-1-yl)methyl)-3-(trifluoromethyl)phenyl)urea]	> 1.5
CN1CCN(Cc2ccc(NC(=O)Nc3ccc(Oc4ccnc5[nH]cc(Cl)c45)cc3F)cc2Cl)CC1 [Ie-12, 1-(4-((3-chloro-1H-pyrrolo[2,3-b]pyridin-4-yl)oxy)-2-fluorophenyl)-3-(3-chloro-4-((4-methylpiperazin-1-yl)methyl)phenyl)urea]	> 1.5
CC(c1ccc(NC(=O)Nc2ccc(Oc3ccnc4[nH]cc(Cl)c34)cc2F)cc1C(F)(F)F)N1CCN(C)CC1 (stereo not shown) [Ie-13, 1-(4-((3-chloro-1H-pyrrolo[2,3-b]pyridin-4-yl)oxy)-2-fluorophenyl)-3-(4-(1-(4-methylpiperazin-1-yl)ethyl)-3-(trifluoromethyl)phenyl)urea]	0.501 to 1.5
CN1CCN(c2ccc(NC(=O)Nc3ccc(Oc4ccnc5[nH]cc(Cl)c45)cc3F)cc2C(F)(F)F)CC1 [Ie-14, 1-(4-((3-chloro-1H-pyrrolo[2,3-b]pyridin-4-yl)oxy)-2-fluorophenyl)-3-(4-(4-methylpiperazin-1-yl)-3-(trifluoromethyl)phenyl)urea]	> 1.5
CN1CCN(C(=O)c2ccc(NC(=O)Nc3ccc(Oc4ccnc5[nH]cc(Cl)c45)cc3F)cc2C(F)(F)F)CC1 [Ie-15, 1-(4-((3-chloro-1H-pyrrolo[2,3-b]pyridin-4-yl)oxy)-2-fluorophenyl)-3-(4-(4-methylpiperazine-1-carbonyl)-3-(trifluoromethyl)phenyl)urea]	> 1.5

Same assay, conditions: Table 2d; recombinant human NEK7, casein substrate

SMILES	IC50 [µM]
CN1CCC(Oc2ccc(NC(=O)Nc3ccc(-c4cn(C5CC5)c5ncnc(N)c45)cc3F)cc2C(F)(F)F)CC1 [Id-46, 1-(4-(4-amino-7-cyclopropyl-7H-pyrrolo[2,3-d]pyrimidin-5-yl)-2-fluorophenyl)-3-(4-((1-methylpiperidin-4-yl)oxy)-3-(trifluoromethyl)phenyl)urea]	< 0.15
Nc1ncnc2c1c(-c1ccc(NC(=O)Nc3ccc(CN4CCOCC4)c(F)c3)c(F)c1)nn2C1CC1 [Id-47, 1-(4-(4-amino-1-cyclopropyl-1H-pyrazolo[3,4-d]pyrimidin-3-yl)-2-fluorophenyl)-3-(3-fluoro-4-(morpholinomethyl)phenyl)urea]	> 1.5
CN1CCN(Cc2ccc(NC(=O)Nc3ccc(-c4nn(C5CC5)c5ccnc(N)c45)cn3)cc2C(F)(F)F)CC1 [Id-50, 1-(5-(4-amino-1-cyclopropyl-1H-pyrazolo[4,3-c]pyridin-3-yl)pyridin-2-yl)-3-(4-((4-methylpiperazin-1-yl)methyl)-3-(trifluoromethyl)phenyl)urea]	0.301 to 0.5
CN1CCC(=Cc2ccc(NC(=O)Nc3ccc(-c4cn(C5CC5)c5ncnc(N)c45)cc3F)cc2C(F)(F)F)CC1 [Id-51, 1-(4-(4-amino-7-cyclopropyl-7H-pyrrolo[2,3-d]pyrimidin-5-yl)-2-fluorophenyl)-3-(4-((1-methylpiperidin-4-ylidene)methyl)-3-(trifluoromethyl)phenyl)urea]	0.501 to 1.5
COc1cc(CN2CCN(C)CC2)ccc1NC(=O)Nc1ccc(-c2cn(C3CC3)c3ncnc(N)c23)cc1F [Id-52, 1-(4-(4-amino-7-cyclopropyl-7H-pyrrolo[2,3-d]pyrimidin-5-yl)-2-fluorophenyl)-3-(2-methoxy-4-((4-methylpiperazin-1-yl)methyl)phenyl)urea]	> 1.5
CN1CCN(Cc2ccc(NC(=O)Nc3ccc(-c4cn(C5CC5)c5ncnc(N)c45)cc3F)cc2C#N)CC1 [Id-53, 1-(4-(4-amino-7-cyclopropyl-7H-pyrrolo[2,3-d]pyrimidin-5-yl)-2-fluorophenyl)-3-(3-cyano-4-((4-methylpiperazin-1-yl)methyl)phenyl)urea]	> 1.5
CCN1CCN(Cc2ccc(NC(=O)Nc3ccc(-c4cn(C5CC5)c5ncnc(N)c45)cc3Cl)cc2C(F)(F)F)CC1 [Id-54, 1-(4-(4-amino-7-cyclopropyl-7H-pyrrolo[2,3-d]pyrimidin-5-yl)-2-chlorophenyl)-3-(4-((4-ethylpiperazin-1-yl)methyl)-3-(trifluoromethyl)phenyl)urea]	< 0.15
Cc1cc(NC(=O)Nc2ccc(-c3nn(C4CC4)c4ccnc(N)c34)cc2F)ccc1N1CCOCC1 [Id-55, 1-(4-(4-amino-1-cyclopropyl-1H-pyrazolo[4,3-c]pyridin-3-yl)-2-fluorophenyl)-3-(3-methyl-4-morpholino-phenyl)urea]	> 1.5
CN1CCN(Cc2ccc(NC(=O)Nc3ccc(-c4cn(C5CC5)c5ncnc(N)c45)cc3F)cc2)CC1 [Id-56]	> 1.5
CCN1CCN(Cc2ccc(NC(=O)Nc3ccc(-c4cn(C5CC5)c5ncnc(N)c45)cc3F)cc2)CC1 [Id-57]	> 1.5
CN1CCN(Cc2ccc(NC(=O)Nc3ccc(-c4cn(C5CC5)c5ncnc(N)c45)cc3F)cc2C(F)F)CC1 [Id-58]	> 1.5
CCN1CCN(Cc2ccc(NC(=O)Nc3ccc(-c4cn(C5CC5)c5ncnc(N)c45)cc3F)cc2C(F)F)CC1 [Id-59]	> 1.5
CN1CCC(Oc2ncc(NC(=O)Nc3ccc(-c4cn(C5CC5)c5ncnc(N)c45)cc3F)cc2C(F)(F)F)CC1 [Id-60]	> 1.5
Nc1ncnc2c1c(-c1ccc(NC(=O)Nc3ccc(CN4CCN(C5CC5)CC4)c(C(F)(F)F)c3)c(F)c1)cn2C1CC1 [Id-61]	0.301 to 0.5
CC(C)N1CCN(Cc2ccc(NC(=O)Nc3ccc(-c4cn(C5CC5)c5ncnc(N)c45)cc3F)cc2C(F)(F)F)CC1 [Id-62]	< 0.15
CN1CC2CC1CN2Cc1ccc(NC(=O)Nc2ccc(-c3cn(C4CC4)c4ncnc(N)c34)cc2F)cc1C(F)(F)F (stereo not shown) [Id-63]	< 0.15
CN1CCN(Cc2ccc(NC(=O)Nc3ccc(-c4cn(C5CC5)c5ncnc(N)c45)cc3F)c(F)c2)CC1 [Id-64]	0.501 to 1.5
Nc1ncnc2c1c(-c1ccc(NC(=O)Nc3ccc(CN4CCNCC45CC5)c(C(F)(F)F)c3)c(F)c1)cn2C1CC1 [Id-65, 1-(4-((4,7-diazaspiro[2,5]octan-4-yl)methyl)-3-(trifluoromethyl)phenyl)-3-(4-(4-amino-7-cyclopropyl-7H-pyrrolo[2,3-d]pyrimidin-5-yl)-2-fluorophenyl)urea]	< 0.15
CN1CCN(Cc2ccc(NC(=O)Nc3ncc(-c4cn(C5CC5)c5ncnc(N)c45)cc3F)cc2C(F)(F)F)CC1 [Id-66]	< 0.15
CN1CCN(Cc2ncc(NC(=O)Nc3ccc(-c4cn(C5CC5)c5ncnc(N)c45)cc3F)cc2C(F)(F)F)CC1 [Id-67]	< 0.15
CN(C)C1CCN(Cc2ccc(NC(=O)Nc3ccc(-c4cn(C5CC5)c5ncnc(N)c45)cc3F)cc2C(F)(F)F)CC1 [Id-68]	< 0.15
CC1CN(C)CCN1Cc1ccc(NC(=O)Nc2ccc(-c3cn(C4CC4)c4ncnc(N)c34)cc2F)cc1C(F)(F)F (stereo not shown) [Id-69]	0.151 to 0.3
CN1CCN(Cc2ccc(NC(=O)Nc3ccc(-c4cn(CCO)c5ncnc(N)c45)cc3F)cc2C(F)(F)F)CC1 [Id-70]	< 0.15
Nc1ncnc2c1c(-c1ccc(NC(=O)Nc3ccc(CN4CCN(CCO)CC4)c(C(F)F)c3)c(F)c1)cn2C1CC1 [Id-71]	< 0.15
